According to patent US12138320B2, “Composition and methods for tumor imaging and treatment” (The University of Chicago, priority 2020, dated 2024):

Key:
[1] = Radiochemical stability by radioactive HPLC; format: physicochemical; conditions: physiologic buffers; PBS containing 10% ethanol, up to 120 min
Experimental: Stability analyses of HPLC-purified […]: Radiochemical stability testing of the synthesized [^18F]JW199, was performed with multiple HPLC injections using increasing amounts of activity to keep the peak heights roughly similar. 64 μCi was injected 83 minutes post synthesis, and this was considered the t=0 time point. The subsequent injection was 79 μCi at 30-minutes, followed by three more injections of 86, 106, and 117 μCi at 60, 90, and 120-minutes respectively.

[2] = system: PC3 prostate cancer xenografts; assay: PET/CT imaging and ex vivo biodistribution in mice bearing PC3 xenografts; design: species or system mouse; conditions: ex vivo quantitation, 3 hours after injection, prostate cancer model
From the text: FIGS. 12A-12C: In vivo prostate cancer tumor images with fluorine-18-labeled 2-isopropylphenyl-(4-(2-fluorethoxy)phenethyl)carbamate ([^18F]JW199) tracer. FIG. 12A is a representative whole-body positron emission tomography-computed tomography (PET-CT) image of a PC3 prostate cancer cell tumor-bearing mouse and tumor boundary image in inset. Image is representative of n=4 mice. B. FIG. 12B is a graph showing the ex vivo biodistribution of [^18F]JW199 in mice bearing PC3 xenografts. Quantification of radiotracer signal in the indicated tissues 3 hours after injection of 150 microcurie (μCi) of radiotracer. Data are means percentage injected dose per cubic centimeter (% ID/cc)±standard deviation (SD) (n=4 male mice). FIG. 12C is a graph of the glyceraldehyde-3-phosphate dehydrogenase (GAPDH)-normalized neutral cholesterol ester hydrolase 1 (NCEH1) protein levels in the edge (red) and inside (blue) areas of tumor xenografts, ***p<0.001 as determined by Student's t-test. […]
In vivo microPET/CT imaging: All imaging was performed by the Integrated Small Animal Imaging Research Resource (iSAIRR) at the University of Chicago (Chicago, Illinois, United States of America) on a β-Cube and X-Cube (Molecubes NV, Ghent, Belgium). […] Respiration rate and body temperature of the animal were constantly monitored during the entire scanning period with the p-Cube and X-Cube onboard monitoring system. […]

[3] = target: T1, NCEH1 (Mus musculus, UniProt Q8BLF1); assay: In vivo microPET/CT imaging and ex vivo biodistribution in nude mice
T1 construct: For murine proteomes, mouse tissues were Dounce-homogenized on ice in cold PBS; from tissue; host or cells: athymic nude mice: heart, kidney, lung, liver, brain, spleen and other organs
T1 sequence (Q8BLF1 1-408): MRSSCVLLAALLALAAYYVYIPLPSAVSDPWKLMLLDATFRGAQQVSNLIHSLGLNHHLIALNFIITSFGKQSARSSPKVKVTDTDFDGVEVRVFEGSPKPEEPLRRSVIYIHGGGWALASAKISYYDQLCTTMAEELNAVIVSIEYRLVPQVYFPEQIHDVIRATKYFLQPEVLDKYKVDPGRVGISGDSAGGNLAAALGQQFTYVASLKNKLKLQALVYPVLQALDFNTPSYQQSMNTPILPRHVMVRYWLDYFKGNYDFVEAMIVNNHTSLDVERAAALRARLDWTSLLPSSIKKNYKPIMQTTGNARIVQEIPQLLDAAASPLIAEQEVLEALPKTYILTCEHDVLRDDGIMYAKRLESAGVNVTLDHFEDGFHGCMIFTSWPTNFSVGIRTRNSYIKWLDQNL
Experimental: In vivo microPET/CT imaging: All imaging was performed by the Integrated Small Animal Imaging Research Resource (iSAIRR) at the University of Chicago (Chicago, Illinois, United States of America) on a β-Cube and X-Cube (Molecubes NV, Ghent, Belgium). […] MicroCT images were acquired using the general purpose protocol, with energy of 50 KeV and a tube current of 100 μA. Respiration rate and body temperature of the animal were constantly monitored during the entire scanning period with the p-Cube and X-Cube onboard monitoring system. A 1 hr dynamic PET acquisition was started 2 hours after [^18F]JW199 injection. Dynamic reconstruction was performed for 6 frames of 10 minutes each using a three-dimensional (3D) OSEM algorithm with 400 μm isometric voxel size. For competition studies, mice were pretreated with either 80 mg/kg JW480 or vehicle (polyethylene glycol 300 (PEG300)) via oral gavage, followed 4 hours later by dosing with [^18F]JW199 and imaging as described. For the MDA-MB231 study, [^18F]JW199 injection was followed immediately by dynamic PET acquisition (90 min) and microCT scanning as detailed above. Dynamic PET image reconstruction included 9 frames of 10 minutes each.
Dynamic reconstruction was performed using a three-dimensional OSEM algorithm with 400 μm isometric voxel size. All image analysis was performed with software sold under the tradename VivoQuant™ (inviCRO, LLC, Boston, Massachusetts, United States of America). 3D regions of interest (ROIs) were drawn and standardized uptake values (SUVs) and percent injected dose per cubic centimeter of tissue (% ID/cc) were calculated for each ROI and time point. % ID/cc was calculated as a ratio of tissue radioactivity concentration (mCi/g) at time of scan to total injected activity (millicurie (mCi)) at time of scan.
Ex vivo Biodistribution: All animals were sacrificed at 3 hours post [^18F]JW199 injection and organs and tumors were immediately harvested. All tissues were weighed, and radioactivity was counted using a Cobra II […] (PerkinElmer, Waltham, Massachusetts, United States of America) calibrated for [^18F] energy. The concentration of radioactivity in tumor, organs, and tissues was determined as percentage of injected dose per cubic centimeter of tissue (% ID/cc).

CC(C)c1ccccc1OC(=O)NCCc1ccc(OCC[18F])cc1 [[^18F]JW199, fluorine-18-labeled 2-isopropylphenyl-(4-(2-fluoroethoxy)phenethyl)carbamate]
chemical stability [1]: chemically stable | total radioactivity in bulk tumor tissue relative to surrounding muscle [2]: higher total radioactivity | PET signal kinetics in target organs ([3]; during the entire imaging procedure): quickly reached and maintained constant levels | PET signal in the brain ([3]; i.v.): low PET signal | CNS penetration ([3]; i.v., inferred from brain PET signal): low CNS penetration | uptake in adipose depots, liver and bone ([3]; i.v., tissues with low Nceh1 mRNA levels): relatively low uptake | PET signal accumulation in kidney, heart and lung ([3]; i.v., ~100 μCi, tissues with relatively high Nceh1 expression): Significant signal accumulation | accumulation in mouse tissues ([3]; mouse, in vivo): rapid, NCEH1-dependent accumulation
